Results published in PMC4620497 (Scientific Reports, 2015).

Key:
HIPK2 = target: T1, HIPK2 (Homo sapiens, UniProt Q9H2X6); assay: KINOMEscan panel screen; assay type: binding; details: read-out: Percent Control(%)
T1 construct: purchased DiscoveRx KINOMEscan (Ambit Biosciences)

PAK2 = target: T2, PAK2 (Homo sapiens, UniProt Q13177); assay: KINOMEscan kinase binding assay (Kd); details: Table S1
T2 construct: purchased DiscoveRx KINOMEscan (Ambit Biosciences)
Description: (§1) In vitro KINOMEscan kinase binding assays (Ambit Biosciences) were employed to determine the binding affinity (Kd) of compounds[41][42].
(§2) compound 1. The y have very similar spectrum of activity in enz ymatic and cellular
(§3) levels. Both of them have the ability to inhibit Wnt/β -catenin si gnalin g. However, in […]

CAMK4 = target: T3, CAMK4 (Homo sapiens, UniProt Q16566); assay: KINOMEscan kinase binding assay (Kd); details: Table S1
T3 construct: purchased DiscoveRx KINOMEscan (Ambit Biosciences)
T3 sequence (Q16566 1-473): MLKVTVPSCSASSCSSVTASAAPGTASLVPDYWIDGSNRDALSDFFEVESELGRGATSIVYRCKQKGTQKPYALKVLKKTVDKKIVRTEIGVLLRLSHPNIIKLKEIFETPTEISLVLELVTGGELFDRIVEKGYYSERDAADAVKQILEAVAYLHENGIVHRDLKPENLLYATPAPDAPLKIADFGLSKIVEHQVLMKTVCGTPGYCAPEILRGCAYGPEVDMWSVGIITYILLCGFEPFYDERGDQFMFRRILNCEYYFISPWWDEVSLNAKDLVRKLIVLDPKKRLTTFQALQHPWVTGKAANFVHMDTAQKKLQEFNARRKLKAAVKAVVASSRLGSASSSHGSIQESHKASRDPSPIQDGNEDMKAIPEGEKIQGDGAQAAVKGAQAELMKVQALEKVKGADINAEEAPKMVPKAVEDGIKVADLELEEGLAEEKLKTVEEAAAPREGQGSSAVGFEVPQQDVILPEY
Description: as §1, §2, §3

DMPK = target: T4, DMPK (Homo sapiens, UniProt Q09013); assay: KINOMEscan kinase binding assay (Kd); details: Table S1
T4 construct: purchased DiscoveRx KINOMEscan (Ambit Biosciences)
T4 sequence (Q09013 1-629): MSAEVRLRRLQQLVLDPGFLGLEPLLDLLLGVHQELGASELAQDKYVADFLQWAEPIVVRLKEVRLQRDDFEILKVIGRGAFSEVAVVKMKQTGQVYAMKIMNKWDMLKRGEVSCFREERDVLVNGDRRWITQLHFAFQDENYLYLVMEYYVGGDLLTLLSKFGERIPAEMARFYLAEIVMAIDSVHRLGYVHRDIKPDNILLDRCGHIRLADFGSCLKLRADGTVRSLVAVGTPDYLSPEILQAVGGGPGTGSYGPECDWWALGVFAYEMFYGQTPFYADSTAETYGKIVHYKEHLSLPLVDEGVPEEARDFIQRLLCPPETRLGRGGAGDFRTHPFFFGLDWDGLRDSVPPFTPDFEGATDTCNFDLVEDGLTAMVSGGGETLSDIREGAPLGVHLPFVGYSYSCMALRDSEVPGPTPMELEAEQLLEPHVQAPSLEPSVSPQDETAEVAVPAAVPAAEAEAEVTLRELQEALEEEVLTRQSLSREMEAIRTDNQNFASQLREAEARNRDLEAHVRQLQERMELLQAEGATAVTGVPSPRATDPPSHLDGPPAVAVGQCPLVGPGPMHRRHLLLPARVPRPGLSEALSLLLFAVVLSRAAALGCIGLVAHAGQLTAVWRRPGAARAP
Description: as §1, §2, §3

ERN1 = ERN1 (Homo sapiens, UniProt O75460); assay: KINOMEscan kinase binding assay (Kd); details: Table S1
Description: as §1, §2, §3

CHEK1 = target: T5, CHEK1 (Homo sapiens, UniProt O14757); assay: KINOMEscan kinase binding assay (Kd); details: Table S1
T5 construct: purchased DiscoveRx KINOMEscan (Ambit Biosciences)
T5 sequence (O14757 1-476): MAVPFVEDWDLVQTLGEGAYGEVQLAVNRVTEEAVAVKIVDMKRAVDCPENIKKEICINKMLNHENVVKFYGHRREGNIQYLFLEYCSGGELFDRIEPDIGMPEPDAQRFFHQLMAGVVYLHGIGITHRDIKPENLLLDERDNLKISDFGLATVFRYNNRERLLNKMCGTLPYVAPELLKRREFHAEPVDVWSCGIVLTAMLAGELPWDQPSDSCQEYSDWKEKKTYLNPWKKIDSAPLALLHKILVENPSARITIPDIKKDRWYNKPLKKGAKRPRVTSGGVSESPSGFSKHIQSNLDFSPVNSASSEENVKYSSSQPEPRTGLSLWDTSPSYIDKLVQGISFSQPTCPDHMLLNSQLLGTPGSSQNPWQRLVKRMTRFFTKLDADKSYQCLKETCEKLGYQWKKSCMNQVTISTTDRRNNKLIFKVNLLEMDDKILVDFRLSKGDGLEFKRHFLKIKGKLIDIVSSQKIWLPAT
Description: as §1, §2, §3

IGF1R = target: T6, IGF1R (Homo sapiens, UniProt P08069); assay: KINOMEscan kinase binding assay (Kd); details: Table S1
T6 construct: DNA tag (qPCR read-out); purchased Ambit Biosciences (KINOMEscan service)
Description: as §1, §2, §3

DLK = target: T7, DLK (Homo sapiens, UniProt Q12852); assay: KINOMEscan kinase binding assay (Kd); details: Table S1
T7 sequence (Q12852 1-859): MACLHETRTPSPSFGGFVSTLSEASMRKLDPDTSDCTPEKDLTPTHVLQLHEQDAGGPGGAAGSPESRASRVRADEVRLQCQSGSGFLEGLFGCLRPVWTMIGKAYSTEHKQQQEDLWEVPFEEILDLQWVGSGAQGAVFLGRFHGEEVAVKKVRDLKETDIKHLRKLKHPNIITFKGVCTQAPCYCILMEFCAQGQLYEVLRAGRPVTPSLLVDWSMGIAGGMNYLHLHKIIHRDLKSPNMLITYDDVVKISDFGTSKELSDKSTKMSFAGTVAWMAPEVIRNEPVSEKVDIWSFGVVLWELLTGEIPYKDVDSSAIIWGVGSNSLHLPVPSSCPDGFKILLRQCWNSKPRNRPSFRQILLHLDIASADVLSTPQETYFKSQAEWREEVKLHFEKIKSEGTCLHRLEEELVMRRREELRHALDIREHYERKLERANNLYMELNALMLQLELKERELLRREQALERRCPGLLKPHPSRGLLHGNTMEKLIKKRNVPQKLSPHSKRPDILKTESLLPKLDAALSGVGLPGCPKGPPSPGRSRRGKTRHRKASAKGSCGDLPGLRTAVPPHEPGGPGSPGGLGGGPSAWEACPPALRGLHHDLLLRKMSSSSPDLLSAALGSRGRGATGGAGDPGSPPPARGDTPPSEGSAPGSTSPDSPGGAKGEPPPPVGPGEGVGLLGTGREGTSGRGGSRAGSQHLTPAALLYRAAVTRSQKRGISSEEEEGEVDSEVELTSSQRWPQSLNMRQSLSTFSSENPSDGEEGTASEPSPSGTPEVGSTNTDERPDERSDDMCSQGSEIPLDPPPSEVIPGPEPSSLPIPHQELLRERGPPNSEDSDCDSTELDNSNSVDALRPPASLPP
Description: as §1, §2, §3

ERBB4 = target: T8, ERBB4 (Homo sapiens, UniProt Q15303); assay: KINOMEscan kinase binding assay (Kd); details: Table S1
T8 construct: purchased DiscoveRx KINOMEscan (Ambit Biosciences)
Description: as §1, §2, §3

PAK1 = PAK1 (Homo sapiens, UniProt Q13153); assay: KINOMEscan kinase binding assay (Kd); details: Table S1
Description: as §1, §2, §3

T6 sequence (P08069 31-1367): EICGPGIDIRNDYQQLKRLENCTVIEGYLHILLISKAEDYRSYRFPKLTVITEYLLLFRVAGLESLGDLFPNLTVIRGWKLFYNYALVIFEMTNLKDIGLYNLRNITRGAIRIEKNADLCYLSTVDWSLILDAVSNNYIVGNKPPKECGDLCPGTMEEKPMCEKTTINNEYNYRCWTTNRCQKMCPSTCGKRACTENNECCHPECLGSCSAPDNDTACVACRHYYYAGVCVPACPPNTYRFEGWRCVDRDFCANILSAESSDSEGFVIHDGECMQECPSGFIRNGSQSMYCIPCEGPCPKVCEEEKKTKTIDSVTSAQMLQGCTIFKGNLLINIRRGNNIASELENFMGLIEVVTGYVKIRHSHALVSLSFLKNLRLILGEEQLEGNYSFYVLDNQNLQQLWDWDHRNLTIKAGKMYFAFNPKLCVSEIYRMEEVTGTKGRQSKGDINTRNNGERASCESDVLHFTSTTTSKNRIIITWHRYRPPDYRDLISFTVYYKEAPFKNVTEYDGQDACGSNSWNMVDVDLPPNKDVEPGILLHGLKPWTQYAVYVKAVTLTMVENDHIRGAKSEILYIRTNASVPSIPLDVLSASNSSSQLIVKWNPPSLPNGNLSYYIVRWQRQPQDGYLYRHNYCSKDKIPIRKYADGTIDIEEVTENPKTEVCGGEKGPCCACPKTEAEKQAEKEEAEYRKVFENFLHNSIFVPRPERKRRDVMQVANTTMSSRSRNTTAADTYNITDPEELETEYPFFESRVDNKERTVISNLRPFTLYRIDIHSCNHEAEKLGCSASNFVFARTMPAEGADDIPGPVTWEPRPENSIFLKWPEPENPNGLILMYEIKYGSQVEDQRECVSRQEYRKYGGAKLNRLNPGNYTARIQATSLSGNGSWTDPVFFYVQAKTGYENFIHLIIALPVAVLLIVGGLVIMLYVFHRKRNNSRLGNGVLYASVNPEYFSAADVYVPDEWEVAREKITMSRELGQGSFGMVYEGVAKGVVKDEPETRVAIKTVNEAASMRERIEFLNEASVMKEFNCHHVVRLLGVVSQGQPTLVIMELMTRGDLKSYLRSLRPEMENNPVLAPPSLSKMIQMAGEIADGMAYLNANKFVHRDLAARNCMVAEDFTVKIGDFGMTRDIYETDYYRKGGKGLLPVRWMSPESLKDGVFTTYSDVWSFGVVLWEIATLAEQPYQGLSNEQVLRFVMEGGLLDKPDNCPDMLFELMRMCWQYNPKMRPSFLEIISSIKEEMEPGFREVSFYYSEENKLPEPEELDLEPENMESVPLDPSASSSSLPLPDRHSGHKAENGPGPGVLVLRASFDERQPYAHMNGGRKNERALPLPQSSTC
T2 sequence (Q13177 whole entry): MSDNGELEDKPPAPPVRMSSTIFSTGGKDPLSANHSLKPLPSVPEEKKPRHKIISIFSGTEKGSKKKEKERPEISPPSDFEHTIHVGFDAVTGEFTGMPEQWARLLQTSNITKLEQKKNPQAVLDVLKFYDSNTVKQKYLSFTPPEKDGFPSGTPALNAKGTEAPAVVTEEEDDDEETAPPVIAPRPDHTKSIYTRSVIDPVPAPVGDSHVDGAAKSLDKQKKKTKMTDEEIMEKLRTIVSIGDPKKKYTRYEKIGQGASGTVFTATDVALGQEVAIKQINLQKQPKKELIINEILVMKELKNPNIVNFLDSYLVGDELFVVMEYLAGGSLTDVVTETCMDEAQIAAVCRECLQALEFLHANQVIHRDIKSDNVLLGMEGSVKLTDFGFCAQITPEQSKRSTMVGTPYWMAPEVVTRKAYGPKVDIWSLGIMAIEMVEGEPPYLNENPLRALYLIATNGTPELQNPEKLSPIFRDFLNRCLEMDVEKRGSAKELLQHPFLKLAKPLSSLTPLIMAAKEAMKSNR
Sequence of ERN1 (O75460 19-977): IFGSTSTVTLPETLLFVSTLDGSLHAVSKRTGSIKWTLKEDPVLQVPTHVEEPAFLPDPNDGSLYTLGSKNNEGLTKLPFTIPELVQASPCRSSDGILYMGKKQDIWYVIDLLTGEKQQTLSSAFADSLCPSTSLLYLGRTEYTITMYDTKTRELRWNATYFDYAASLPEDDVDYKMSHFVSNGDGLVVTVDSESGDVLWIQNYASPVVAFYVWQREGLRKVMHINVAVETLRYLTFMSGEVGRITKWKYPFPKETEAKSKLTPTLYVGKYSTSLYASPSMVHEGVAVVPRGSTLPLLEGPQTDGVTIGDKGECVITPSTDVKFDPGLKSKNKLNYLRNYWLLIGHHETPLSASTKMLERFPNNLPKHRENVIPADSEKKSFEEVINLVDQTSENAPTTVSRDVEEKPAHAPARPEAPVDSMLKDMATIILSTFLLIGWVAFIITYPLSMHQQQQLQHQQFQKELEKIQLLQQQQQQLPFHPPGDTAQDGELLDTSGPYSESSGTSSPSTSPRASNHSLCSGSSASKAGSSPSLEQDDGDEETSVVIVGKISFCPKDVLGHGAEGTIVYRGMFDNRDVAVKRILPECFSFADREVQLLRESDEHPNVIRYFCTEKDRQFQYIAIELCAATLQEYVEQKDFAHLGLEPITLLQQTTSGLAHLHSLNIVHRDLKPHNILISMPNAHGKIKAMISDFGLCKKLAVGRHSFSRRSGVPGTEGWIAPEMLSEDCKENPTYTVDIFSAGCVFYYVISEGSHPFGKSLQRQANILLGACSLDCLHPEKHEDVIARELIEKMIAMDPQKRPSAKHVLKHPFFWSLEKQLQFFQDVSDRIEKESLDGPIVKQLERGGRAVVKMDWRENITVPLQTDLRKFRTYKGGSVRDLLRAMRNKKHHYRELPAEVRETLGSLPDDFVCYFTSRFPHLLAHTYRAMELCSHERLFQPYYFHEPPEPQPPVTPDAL
T8 sequence (Q15303 26-1308): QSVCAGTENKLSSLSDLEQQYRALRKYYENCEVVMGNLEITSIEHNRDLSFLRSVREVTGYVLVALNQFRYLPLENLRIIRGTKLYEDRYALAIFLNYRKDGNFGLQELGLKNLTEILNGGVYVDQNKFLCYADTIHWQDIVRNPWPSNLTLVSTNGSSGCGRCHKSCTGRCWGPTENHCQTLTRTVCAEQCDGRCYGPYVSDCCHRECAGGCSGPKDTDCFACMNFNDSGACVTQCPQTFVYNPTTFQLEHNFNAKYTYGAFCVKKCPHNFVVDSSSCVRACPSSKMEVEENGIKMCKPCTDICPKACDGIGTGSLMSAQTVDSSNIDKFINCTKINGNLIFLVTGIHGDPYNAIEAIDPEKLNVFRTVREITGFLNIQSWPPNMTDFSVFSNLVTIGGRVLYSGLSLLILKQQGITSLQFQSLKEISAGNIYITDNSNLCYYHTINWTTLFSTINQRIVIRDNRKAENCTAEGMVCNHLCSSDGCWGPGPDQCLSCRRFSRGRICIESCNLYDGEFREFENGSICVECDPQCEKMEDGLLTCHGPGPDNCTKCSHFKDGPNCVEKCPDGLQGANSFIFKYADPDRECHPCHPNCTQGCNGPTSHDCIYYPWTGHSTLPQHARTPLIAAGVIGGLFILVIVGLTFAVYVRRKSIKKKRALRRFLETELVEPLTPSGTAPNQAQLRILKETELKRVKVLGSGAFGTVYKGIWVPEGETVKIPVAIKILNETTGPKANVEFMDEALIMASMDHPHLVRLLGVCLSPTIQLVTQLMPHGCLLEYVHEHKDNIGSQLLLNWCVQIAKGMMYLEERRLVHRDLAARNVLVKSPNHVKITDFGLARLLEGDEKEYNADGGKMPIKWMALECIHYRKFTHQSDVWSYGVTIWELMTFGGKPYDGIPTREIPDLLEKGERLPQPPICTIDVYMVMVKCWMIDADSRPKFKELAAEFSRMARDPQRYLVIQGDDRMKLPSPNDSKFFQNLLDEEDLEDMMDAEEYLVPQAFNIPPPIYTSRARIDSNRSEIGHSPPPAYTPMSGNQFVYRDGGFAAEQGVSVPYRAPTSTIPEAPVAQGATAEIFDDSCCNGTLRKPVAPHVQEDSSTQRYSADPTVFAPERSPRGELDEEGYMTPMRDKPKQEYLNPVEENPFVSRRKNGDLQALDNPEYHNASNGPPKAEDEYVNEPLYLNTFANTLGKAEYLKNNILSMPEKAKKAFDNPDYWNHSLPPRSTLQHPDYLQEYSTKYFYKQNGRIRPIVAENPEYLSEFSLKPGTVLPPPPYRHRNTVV
Sequence of PAK1 (Q13153 whole entry): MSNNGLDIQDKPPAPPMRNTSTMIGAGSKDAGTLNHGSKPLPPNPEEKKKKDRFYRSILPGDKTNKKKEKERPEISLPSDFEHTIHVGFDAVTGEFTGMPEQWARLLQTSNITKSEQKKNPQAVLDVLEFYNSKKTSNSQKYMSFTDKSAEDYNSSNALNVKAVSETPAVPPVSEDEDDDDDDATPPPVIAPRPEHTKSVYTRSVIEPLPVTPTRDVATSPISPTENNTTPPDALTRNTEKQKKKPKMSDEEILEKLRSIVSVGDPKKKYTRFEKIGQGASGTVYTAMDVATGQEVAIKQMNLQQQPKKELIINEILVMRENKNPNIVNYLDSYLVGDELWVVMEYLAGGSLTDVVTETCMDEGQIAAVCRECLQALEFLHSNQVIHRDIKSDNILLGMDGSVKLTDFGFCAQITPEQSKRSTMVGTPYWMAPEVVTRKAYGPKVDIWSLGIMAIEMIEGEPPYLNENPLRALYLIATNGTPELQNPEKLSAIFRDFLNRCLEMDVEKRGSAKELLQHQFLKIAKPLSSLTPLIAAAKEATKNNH

Q: How did the remaining binding at 10 µM (HIPK2) turn out when `CC(C)(C)c1cc(NC(=O)Nc2ccc(Oc3ncnc4[nH]ncc34)c(F)c2)no1` [SKLB-677, 1-(4-(1H-pyrazolo[3,4-d]pyrimidin-4-yloxy)-3-fluorophenyl)-3-(5-tert-butylisoxazol-3-yl)urea] was run?
A: Its remaining binding at 10 µM is 4.4%.

Q: And the Kd (PAK2)?
A: Its Kd is > 10 µM.

Q: And the Kd (CAMK4)?
A: Its Kd is > 10 µM.

Q: And the Kd (DMPK)?
A: Its Kd is > 10 µM.

Q: And the Kd (ERN1)?
A: Its Kd is > 10 µM.

Q: And the Kd (CHEK1)?
A: The Kd was > 10 µM.

Q: What about the Kd (IGF1R) of the same compound?
A: The Kd was > 10 µM.

Q: What about the Kd (DLK) of the same compound?
A: Its Kd is > 10 µM.

Q: And the Kd (ERBB4)?
A: Its Kd is > 10 µM.

Q: And the Kd (PAK1)?
A: Its Kd is > 10 µM.
